ChEMBL document CHEMBL4219217, “Structure-activity relationship study of a series of caspase inhibitors containing γ-amino acid moiety for treatment of cholestatic liver disease” (Bioorg Med Chem Lett, 2018)
pIC50: −log10 of the molar value. Values belong to the compound of their own block, whether it stands above or below them. The source made the active and inactive calls. No cut-off for these calls is given here.

Tests used:
[1] = Stability in mouse plasma assessed as compound remaining level at 100 uM incubated for 2 hrs by LC-MS/MS method; format: ADME, cell-free
[2] = Stability in rat plasma assessed as compound remaining level at 100 uM incubated for 2 hrs by LC-MS/MS method; format: ADME, cell-free; details: for Stability: 2 h, 100 µM; for remaining at 2 h, 100 µM: read-out: Stability
Mus musculus [3] = assay: (§1) AUC (0 to infinity) in C57BL/6J mouse at 10 mg/kg, po after 0.25 to 24 hrs by LC-MS/MS method; format: ADME, organism-based; design: dose 10 mg/kg, time infinity, route oral; details: in vivo
[4] = Cmax in C57BL/6J mouse at 10 mg/kg, po after 0.25 to 24 hrs by LC-MS/MS method; format: ADME, organism-based; design: dose 10 mg/kg, route oral; details: in vivo
Rattus norvegicus [5] = assay: Reduction in serum direct bilirubin level in Sprague-Dawley rat model of alpha-naphthylisothiocyanate-induced cholestatic liver disease at 6 mg/kg administered intragastrically once daily for 1 week; format: functional, organism-based
Mus musculus [6] = assay: AUC (0 to infinity) in C57BL/6J mouse at 1 mg/kg, iv after 0.25 to 24 hrs by LC-MS/MS method; format: ADME, organism-based; design: dose 1 mg/kg, time infinity, route intravenous; details: in vivo
Rattus norvegicus [7] = assay: Reduction in serum indirect bilirubin level in Sprague-Dawley rat model of alpha-naphthylisothiocyanate-induced cholestatic liver disease at 6 mg/kg administered intragastrically once daily for 1 week; format: functional, organism-based
[8] = AUC in C57BL/6J mouse liver at 1 mg/kg, po after 0.5 to 6 hrs by LC-MS/MS method; format: ADME, organism-based; design: time lower 0.5 hr, dose 1 mg/kg, time upper 6 hr, route oral; details: in vivo
Rattus norvegicus [9] = assay: Reduction in serum total bilirubin level in Sprague-Dawley rat model of alpha-naphthylisothiocyanate-induced cholestatic liver disease at 6 mg/kg administered intragastrically once daily for 1 week; format: functional, organism-based
[10] = as §1; format: ADME, organism-based; design: dose 10 mg/kg, time infinity, route oral; details: C57BL/6J, in vivo
Caspase-3 = target: T1, Caspase-3 (Homo sapiens, UniProt P42574); assay: Inhibition of Anti-Fas antibody-induced caspase-3 activity in human Jurkat E6-1 cells using Ac-DEVD-AMC substrate by fluorescence based assay; format: cell-based
T1 sequence (P42574 whole entry): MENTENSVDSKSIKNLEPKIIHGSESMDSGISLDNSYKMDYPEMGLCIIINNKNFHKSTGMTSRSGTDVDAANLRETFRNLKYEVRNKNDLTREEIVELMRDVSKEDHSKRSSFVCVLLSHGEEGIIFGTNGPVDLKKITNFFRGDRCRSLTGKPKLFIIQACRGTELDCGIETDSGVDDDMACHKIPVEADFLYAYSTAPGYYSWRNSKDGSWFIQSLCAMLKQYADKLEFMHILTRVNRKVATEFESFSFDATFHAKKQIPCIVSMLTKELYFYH

Stability [1]: Unstable | Stability [2]: Unstable
Structure (SMILES): O=C(O)C[C@H](NC(=O)C1CCN(C(=O)Oc2ccccc2Cl)CC1)C(=O)COc1c(F)c(F)cc(F)c1F

AUC (Mus musculus [3]): 1.71 µM·h | Cmax [4]: 405 nM | AUC (Mus musculus [6]): 0.852 µM·h | AUC [8]: 2219 nmol·h/kg
Structure (SMILES): O=C(O)C[C@H](NC(=O)C1CCN(C(=O)C2CCCC2)CC1)C(=O)COc1c(F)c(F)cc(F)c1F
Activity (Rattus norvegicus [5]): Active | Activity (Rattus norvegicus [7]): Active | Activity (Rattus norvegicus [9]): Active

AUC(0-inf) [10]: 3.66 µM·h | Cmax [4]: 1640 nM | remaining at 2 h, 100 µM [2]: 93%
Structure (SMILES): CC(C)(C)c1ccccc1NC(=O)C(=O)N1CCC(C(=O)N[C@@H](CC(=O)O)C(=O)COc2c(F)c(F)cc(F)c2F)CC1

Stability [1]: Stable | Stability [2]: Stable
Structure (SMILES): O=C(O)C[C@H](NC(=O)C1CCN(C(=O)OC2CCCC2)CC1)C(=O)COc1c(F)c(F)cc(F)c1F

AUC [8]: 334 nmol·h/kg
Structure (SMILES): O=C(O)C[C@H](NC(=O)C1CCN(C(=O)C2CC(F)(F)C2)CC1)C(=O)COc1c(F)c(F)cc(F)c1F

AUC [8]: 804 nmol·h/kg
Structure (SMILES): O=C(O)C[C@H](NC(=O)C1CCN(C(=O)c2cccs2)CC1)C(=O)COc1c(F)c(F)cc(F)c1F

remaining at 2 h, 100 µM [2]: 67%
Structure (SMILES): CC(C)(C)c1ccccc1NC(=O)C(=O)N1CCC[C@@H](C(=O)N[C@@H](CC(=O)O)C(=O)COc2c(F)c(F)cc(F)c2F)C1

AUC (Mus musculus [3]): 0.197 µM·h | Cmax [4]: 227 nM | AUC (Mus musculus [6]): 0.446 µM·h | pIC50 (Caspase-3): 8.22 | AUC [8]: 2350 nmol·h/kg
Structure (SMILES): C[C@H](NC(=O)C(=O)Nc1ccccc1C(C)(C)C)C(=O)N[C@@H](CC(=O)O)C(=O)COc1c(F)c(F)cc(F)c1F [EMRICASAN]
